We go through 13 molecules from patent US8859588B2, “Substituted N-heteroaryl bipyrrolidine carboxamides, preparation and therapeutic use thereof” (SANOFI, priority 2010, dated 2014).

T1 sequence (Q865E1 1-445): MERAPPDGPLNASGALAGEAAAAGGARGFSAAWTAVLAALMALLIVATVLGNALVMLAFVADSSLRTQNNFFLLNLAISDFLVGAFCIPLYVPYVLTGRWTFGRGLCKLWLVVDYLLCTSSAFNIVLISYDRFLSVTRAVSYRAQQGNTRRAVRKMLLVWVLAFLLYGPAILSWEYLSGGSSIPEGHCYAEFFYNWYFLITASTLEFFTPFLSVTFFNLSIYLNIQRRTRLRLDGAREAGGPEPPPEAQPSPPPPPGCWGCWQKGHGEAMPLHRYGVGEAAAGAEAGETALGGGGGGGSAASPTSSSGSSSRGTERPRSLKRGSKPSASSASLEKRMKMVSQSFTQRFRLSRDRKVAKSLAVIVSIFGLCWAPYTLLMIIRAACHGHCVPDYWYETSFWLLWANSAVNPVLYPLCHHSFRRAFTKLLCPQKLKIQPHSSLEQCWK

This assay addresses T1, rhesus (Macacca Mulatta) H3 receptor (Macaca mulatta, UniProt Q865E1).
T1 construct: rhesus monkey (Macacca Mulatta) 445 amino acid H3 receptor; (Genbank #AY231164); expressed in transfected cells; host or cells: Flp-In T-REx 293 Cell Line (Invitrogen), pcDNA5/FRT/TO vector, induced with tetracycline; membrane preparation
The assay is described as follows: Rhesus H3 radioligand binding assay ([3H]-Methylhistamine displacement, WGA SPA). The arrangement: species or system rhesus monkey (Macacca Mulatta). The settings on record: [3H]-Methylhistamine 2 nM; rhesus H3 membranes from Flp-In T-REx 293 cells; 25° C., 1 hour; Ki by Cheng-Prusoff equation. How it is done: Rhesus H3 membranes were prepared from the Flp-In T-REx 293 Cell Line (Invitrogen) stably transfected with pcDNA5/FRT/TO (Invitrogen) containing the rhesus monkey (Macacca Mulatta) 445 amino acid H3 receptor. (Genbank #AY231164). Stably transfected cultures were amplified in tissue culture flasks by standard tissue culture methods and induced to express rhesus H3 by exposure to 500 ng/ml tetracycline (Cellgro) for 24 hours. After induction, cells were dissociated from flasks utilizing Cell Stripper (Cellgro). Cells were centrifuged (1K×g, 5 min) and pellet frozen in an ethanol-dry ice bath to disrupt cell membranes. Frozen cell pellet was re-suspended in 5 mM HEPES (pH 7.4, Invitrogen) at 10 ml/1000 cm2 of harvested cells. The cell suspension was drawn through an 18 gauge needle (2-3×) followed by a 23 gauge needle (2-3×) to further disrupt cell membranes. The cell suspension was centrifuged (40K×g, 30 min). Cell membrane pellet was re-suspended in 5 mM HEPES (pH 7.4, Invitrogen) at a final protein concentration of 10 mg/ml. Rhesus H3 membranes were stored under liquid nitrogen prior to use in [3H]-Methylhistamine and GTPγS radioligand binding assays.
Rhesus H3 radioligand binding assay was performed using rhesus H3 receptor membranes (prepared as described above), [3H]-Methylhistamine (Perkin Elmer) and WGA SPA beads (wheat germ agglutinin scintillation proximity assay) beads (Amersham). The assay was performed in 96-well Opti-Plates (Packard). Each reaction contained 50 μl rhesus H3 membranes (20-30 μg total protein), 50 μl WGA SPA beads (0.1 μg) and 50 μl of 83 Ci/mmol [^3H]-Methylhistamine (final concentration 2 nM) and 50 μl of tested compound. The compounds of this invention and/or vehicle were diluted with binding buffer from 10 mM DMSO stocks. Assay plates were sealed with TopSeal (Perkin Elmer) and mixed on shaker (25° C., 1 hour). Assay plates were read on TopCount scintillation counter (Packard). Results were analyzed by Hill transformation and Ki values were determined by Cheng-Prusoff equation.
As for `Cc1nc(N2CC[C@H](N3CCC[C@@H]3C)C2)ccc1NC(=O)Cc1ccccc1` [Example 4, N-[2-Methyl-6-((2S,3′S)-2-methyl-[1,3′]bipyrrolidinyl-1′-yl)-pyridin-3-yl]-2-phenyl-acetamide], the Ki (usually the equilibrium dissociation constant of an inhibitor or competing ligand from its target) came out at 4.9 nM. As for `Cc1nc(N2CC[C@H](N3CCC[C@@H]3C)C2)ccc1NS(=O)(=O)C1CCCCC1` [Example 5, Cyclohexanesulfonic acid [2-methyl-6-((2S,3′S)-2-methyl-[1,3′]bipyrrolidinyl-1′-yl)-pyridin-3-yl]-amide], the Ki is 26.3 nM. For `Cc1nc(N2CC[C@@H](N3CCC[C@@H]3C)C2)ccc1NS(=O)(=O)c1ccc(F)cc1` [Example 12, 4-Fluoro-N-[2-methyl-6-((2S,3′R)-2-methyl-[1,3′]bipyrrolidinyl-1′-yl)-pyridin-3-yl]-benzenesulfonamide], the affinity, expressed as Ki, was 29.6 nM. The value for `Cc1nc(N2CC[C@H](N3CCC[C@@H]3C)C2)ccc1NS(=O)(=O)c1ccc(F)c(F)c1` [Example 6, 3,4-Difluoro-N-[2-methyl-6-((2S,3′S)-2-methyl-[1,3′]bipyrrolidinyl-1′-yl)-pyridin-3-yl]-benzenesulfonamide] was 2.51 nM; that for `Cc1nc(N2CC[C@@H](N3CCC[C@@H]3C)C2)ccc1NS(=O)(=O)C1CC1` [Example 13, Cyclopropanesulfonic acid [2-methyl-6-((2S,3′R)-2-methyl-[1,3′]bipyrrolidinyl-1′-yl)-pyridin-3-yl]-amide] was 37.1 nM; that for `Cc1nc(N2CC[C@H](N3CCC[C@@H]3C)C2)ccc1NC(=O)C1CCOCC1` [Example 1, Tetrahydro-pyran-4-carboxylic acid [2-methyl-6-((2S,3′S)-2-methyl-[1,3′]bipyrrolidinyl-1′-yl)-pyridin-3-yl]-amide] was 2.4 nM. Regarding `CC(=O)N1CCC(C(=O)Nc2ccc(N3CC[C@@H](N4CCC[C@@H]4C)C3)nc2C)CC1` [Example 8, 1-Acetyl-piperidine-4-carboxylic acid [2-methyl-6-((2S,3R)-2-methyl-[1,3′]bipyrrolidinyl-1′-yl)-pyridin-3-yl]-amide], the affinity corresponds to a Ki of 2.46 nM. The molecule `C[C@H]1CCCN1[C@H]1CCN(c2ccc(NC(=O)C3CCOCC3)nc2)C1` [Example 2, Tetrahydro-pyran-4-carboxylic acid [5-((2S,3′S)-2-methyl-[1,3′]bipyrrolidinyl-1′-yl)-pyridin-2-yl]-amide] displayed a Ki of 27 nM. As for `Cc1ccc(F)cc1C(=O)Nc1ccc(N2CC[C@@H](N3CCC[C@@H]3C)C2)nc1C` [Example 9, 5-Fluoro-2-methyl-N-[2-methyl-6-((2S,3′R)-2-methyl-[1,3′]bipyrrolidinyl-1′-yl)-pyridin-3-yl]-benzamide], the Ki stood at 195 nM.

For the molecule `Cc1nc(N2CC[C@@H](N3CCC[C@@H]3C)C2)ccc1NC(=O)c1c(C)noc1C` [Example 11, 3,5-Dimethyl-isoxazole-4-carboxylic acid [2-methyl-6-((2S,3′R)-2-methyl-[1,3′]bipyrrolidinyl-1′-yl)-pyridin-3-yl]-amide], the Ki was determined as 84 nM. The value for `Cc1nc(N2CC[C@@H](N3CCC[C@@H]3C)C2)ccc1NC(=O)c1cccs1` [Example 10, Thiophene-2-carboxylic acid [2-methyl-6-((2S,3′R)-2-methyl-[1,3′]bipyrrolidinyl-1′-yl)-pyridin-3-yl]-amide] was 36 nM; that for `Cc1nc(N2CC[C@H](N3CCC[C@@H]3C)C2)ccc1NC(=O)c1cccc2ccccc12` [Example 3, Naphthalene-1-carboxylic acid [2-methyl-6-((2S,3′S)-2-methyl-[1,3′]bipyrrolidinyl-1′-yl)-pyridin-3-yl]-amide] was 4.24 nM. With `Cc1nc(N2CC[C@H](N3CCC[C@@H]3C)C2)ccc1NC(=O)c1ccccc1` [Example 7, N-[2-Methyl-6-((2S,3′S)-2-methyl-[1,3′]bipyrrolidinyl-1′-yl)-pyridin-3-yl]-benzamide] the figure was 8.09 nM.
